Assay results published in the OligoGym collection.
Values joined by “and” are separate entries in the source; they are usually repeats but may differ in a detail not shown here. Equal values may be shown once. After the bases stand the sugars from the 5' end (letter, count) and the backbone: PS all phosphorothioate, else s phosphorothioate and o phosphodiester by linkage. Methylation of C is not given here. e = 2'-O-(2-methoxyethyl) (MOE); k = constrained ethyl (cEt); d = 2'-deoxy (DNA)

Biological target: APOL1
Settings: ASO

Row | Sequence | target mRNA inhibition (A431, 2 µM) [%] | target mRNA inhibition (A431, 0.25 µM) | target mRNA inhibition (A431, 1 µM) | target mRNA inhibition (A431, 0.0625 µM) | target mRNA inhibition (A431, 0.0156 µM) [%] | target mRNA inhibition (A431, 0.04 µM)
1 | GAGTATTGTTTTTGTG (sugars kkddddkekekddddd, PS) | 90 | – | – | – | – | –
2 | GAGTATTGTTTTTGTG (sugars kkkddddkdkdkdddd, PS) | 54 | – | – | – | – | –
3 | GATGTGTTTAGGCATT (sugars k4 d9 k3, PS) | – | 71% and 83% | 90% and 91% | – | – | –
4 | GATTTTCCAACAAGGT (sugars k4 d9 k3, PS) | – | 80% | 92% | 54% | – | –
5 | GCAAGGTTGTCCAGAG (sugars k4 d9 k3, PS) | – | 61% | 61% | 43% | – | –
6 | GCAATGCTGACTTGGC (sugars kdddddkekekddddd, PS) | 85 | – | – | – | – | –
7 | GCAATGCTGACTTGGC (sugars kddddkekekeddddd, PS) | 45 | – | – | – | – | –
8 | GCAGGTTCACATGACA (sugars k4 d9 k3, PS) | – | 58% | 72% | 39% | – | –
9 | GCAGTTTTGTAAGTGC (sugars k2 d4 e3 k2 d5, PS) | 79 | – | – | – | – | –
10 | GCAGTTTTGTAAGTGC (sugars kkkddddkekeddddd, PS) | 60 | – | – | – | – | –
11 | GCATTCAGAATTTCCA (sugars k3 d4 k3 e1 d5, PS) | 95 | 90% | 92% | 73% | 33 | –
12 | GCTAATTTTCTGACTG (sugars k4 d9 k3, PS) | – | 95% and 85% | 98% and 91% | 77% and 60% | – | –
13 | GCTAATTTTCTGACTG (sugars kekddddeekkddddd, PS) | 94 | 69% | 87% | 42% | 13 | –
14 | GCTAATTTTCTGACTG (sugars kkddddekekeddddd, PS) | 88 | – | – | – | – | –
15 | GCTAATTTTCTGACTG (sugars kkddddkekekddddd, PS) | 96 | 86% | 92% | 63% | 28 | 50%
16 | GCTAATTTTCTGACTG (sugars kkddddkekekkdddd, PS) | 71 | – | – | – | – | –
17 | GCTAATTTTCTGACTG (sugars kkkddddkdkdkdddd, PS) | 93 | 85% | 93% | 66% | 40 | 34%
18 | GCTTTAAACTCAGGTG (sugars k2 d4 e4 k2 d4, PS) | 95 | – | – | – | – | –
19 | GCTTTAAACTCAGGTG (sugars k4 d9 k3, PS) | – | 76% and 79% | 91% and 89% and 82% | – | – | 11%
20 | GCTTTAAACTCAGGTG (sugars kdddddkekekddddd, PS) | 92 | – | – | – | – | –
21 | GCTTTAAACTCAGGTG (sugars kkddddkekekddddd, PS) | 86 | – | – | – | – | –
22 | GCTTTAAACTCAGGTG (sugars kkddddkekekkdddd, PS) | 50 | – | – | – | – | –
23 | GGAATTATGGAATTGC (sugars k4 d9 k3, PS) | – | 93% | 98% | 74% | – | 55%
24 | GGAATTATGGAATTGC (sugars kekddddeekkddddd, PS) | 98 | 90% | 97% | 63% | 23 | –
25 | GGAATTATGGAATTGC (sugars kkddddkekekddddd, PS) | 82 | – | – | – | – | –
26 | GGAATTATGGAATTGC (sugars kkkddddkekeddddd, PS) | 55 | – | – | – | – | –

Row | Sequence | target mRNA inhibition (A431, 2 µM) [%] | target mRNA inhibition (A431, 0.25 µM) | target mRNA inhibition (A431, 1 µM) | target mRNA inhibition (A431, 0.0625 µM) | target mRNA inhibition (A431, 0.0156 µM) [%] | target mRNA inhibition (A431, 0.04 µM)
27 | GGAATTATGGAATTGC (sugars kkkddddkekekdddd, PS) | 66 | – | – | – | – | –
28 | GGCAAGGCTAAGTTCC (sugars k4 d9 k3, PS) | – | 75% | 84% | 41% | – | –
29 | GGCAGTTTTGTAAGTG (sugars kkkddddkekekdddd, PS) | 32 | – | – | – | – | –
30 | GGGAAATGAACGCAAT (sugars k4 d9 k3, PS) | – | 60% | 83% | 22% | – | –
31 | GGGAATTATGGAATTG (sugars k3 d4 k3 e1 d5, PS) | 77 | – | – | – | – | –
32 | GGGTTATGAAATTATT (sugars k2 d4 e3 k2 d5, PS) | 77 | – | – | – | – | –
33 | GGGTTATGAAATTATT (sugars kkkddddkekekdddd, PS) | 73 | – | – | – | – | –
34 | GTATTGCCAGCTAAGG (sugars kdddddkekekddddd, PS) | 93 | 70% | 87% | 50% | 29 | –
35 | GTATTGCCAGCTAAGG (sugars kkddddkekekkdddd, PS) | 74 | – | – | – | – | –
36 | GTATTGTTTTTGTGGG (sugars kddddkekekeddddd, PS) | 70 | – | – | – | – | –
37 | GTATTTCTTGATGTGG (sugars k2 d4 e3 k2 d5, PS) | 97 | – | – | – | – | –
38 | GTATTTCTTGATGTGG (sugars kkddddkdkdkddddd, PS) | 87 | – | – | – | – | –
39 | GTATTTCTTGATGTGG (sugars kkddddkekekddddd, PS) | 75 | – | – | – | – | –
40 | GTATTTCTTGATGTGG (sugars kkddddkekekkdddd, PS) | 52 | – | – | – | – | –
41 | GTATTTCTTGATGTGG (sugars kkkddddkdkdkdddd, PS) | 92 | 82% | 86% | 59% | 24 | –
42 | GTATTTCTTGATGTGG (sugars kkkddddkekeddddd, PS) | 98 | 96% | 97% | 80% | 50 | –
43 | GTCATATCAGATGGGT (sugars k4 d9 k3, PS) | – | 77% | 91% | 52% | – | –
44 | GTCATTAGTGCTATAG (sugars k4 d9 k3, PS) | – | 87% | 93% | 68% | – | –
45 | GTGTATTTCTTGATGT (sugars kkddddekekeddddd, PS) | 94 | 83% | 92% | 65% | 36 | –
46 | GTGTGATAACTAGCTG (sugars k4 d9 k3, PS) | – | 88% | 93% | 78% | – | –
47 | GTGTTATATTTGATCC (sugars k2 d4 e3 k2 d5, PS) | 98 | – | 98% | – | – | 52% and 50%
48 | GTGTTATATTTGATCC (sugars k3 d4 k3 e1 d5, PS) | 94 | 84% | 91% | 63% | 32 | 50%
49 | GTGTTATATTTGATCC (sugars kkddddekekeddddd, PS) | 96 | – | – | – | – | –
50 | GTGTTATATTTGATCC (sugars kkddddkekekddddd, PS) | 78 | – | – | – | – | –
51 | GTGTTATATTTGATCC (sugars kkkddddkekekdddd, PS) | 75 | – | – | – | – | –
52 | GTTATATTTGATCCTC (sugars k2 d4 e4 k2 d4, PS) | 69 | – | – | – | – | –

Row | Sequence | target mRNA inhibition (A431, 2 µM) [%] | target mRNA inhibition (A431, 0.25 µM) | target mRNA inhibition (A431, 1 µM) | target mRNA inhibition (A431, 0.0625 µM) | target mRNA inhibition (A431, 0.0156 µM) [%] | target mRNA inhibition (A431, 0.04 µM)
53 | GTTATATTTGATCCTC (sugars k3 d5 k3 d5, PS) | 100 | 93% | 99% | 86% | – | –
54 | GTTATATTTGATCCTC (sugars kkkddddkdkdkdddd, PS) | 92 | – | – | – | – | –
55 | GTTATGAAATTATTGG (sugars kkdddddkekeddddd, PS) | 68 | – | – | – | – | –
56 | GTTATGAAATTATTGG (sugars kkddddkdkdkddddd, PS) | 71 | – | – | – | – | –
57 | GTTATGAAATTATTGG (sugars kkkddddkekeddddd, PS) | 93 | 75% | 85% | 42% | 9 | –
58 | GTTCAAAAGCAGCATT (sugars k2 d4 e3 k2 d5, PS) | 86 | – | – | – | – | –
59 | GTTCAAAAGCAGCATT (sugars kddddkekekeddddd, PS) | 33 | – | – | – | – | –
60 | GTTCAAAAGCAGCATT (sugars kkdddddkekeddddd, PS) | 89 | – | – | – | – | –
61 | GTTCAAAAGCAGCATT (sugars kkddddkdkdkddddd, PS) | 73 | – | – | – | – | –
62 | GTTCTAACTCTTGGGC (sugars k3 d4 k3 e1 d5, PS) | 58 | – | – | – | – | –
63 | GTTCTAACTCTTGGGC (sugars kekddddeekkddddd, PS) | 86 | – | – | – | – | –
64 | GTTCTAACTCTTGGGC (sugars kkdddddkekeddddd, PS) | 84 | – | – | – | – | –
65 | GTTCTAACTCTTGGGC (sugars kkkddddkdkdkdddd, PS) | 73 | – | – | – | – | –
66 | GTTCTAACTCTTGGGC (sugars kkkddddkekeddddd, PS) | 66 | – | – | – | – | –
67 | GTTTCATATTCACCCG (sugars k4 d9 k3, PS) | – | 92% | 97% | 82% | – | –
68 | GTTTTGTAAGTGCAAC (sugars kkddddkekekkdddd, PS) | 62 | – | – | – | – | –
69 | TAATGTCTCAAACTCC (sugars k4 d9 k3, PS) | – | 50% | 80% | 24% | – | –
70 | TAATTCTATTAGAGGG (sugars k2 d4 e3 k2 d5, PS) | 59 | – | – | – | – | –
71 | TAATTCTATTAGAGGG (sugars kkkddddkekekdddd, PS) | 41 | – | – | – | – | –
72 | TACATTTGGAGATCTG (sugars k4 d9 k3, PS) | – | 80% | 90% | 61% | – | –
73 | TAGTGCTATAGAGGGA (sugars k3 d10 k3, PS) | – | 86% | 95% | 57% | – | –
74 | TATCAGATGGGTACTT (sugars kkkddddkekeddddd, PS) | 37 | – | – | – | – | –
75 | TATTCTCATGGTACAG (sugars k3 d4 k3 e1 d5, PS) | 79 | – | – | – | – | –
76 | TATTTCTTGATGTGGT (sugars k2 d4 e4 k2 d4, PS) | 96 | – | – | – | – | –
